Experimental data published in patent publication US20060095978A1, “Screening assay” (priority 2002, published 2006).

Tests used:
Assay type in all cases: in vivo, mouse
IL-4 = experiment: Serum IL-4 in OVA323-339 stimulated DO11.10 mice (ELISA); settings: for IL-4 level in pg/ml serum on day 0 after 0 hours: 0 hours (before injection)
Method: (§1) Groups of six, 8-10 weeks old, male or female DO11.10 mice weighing between 20-22 g are obtained as described in Murphy K. M. et al. 1990, Science 250:1720-1722. The animals are maintained in Microvent positive air supply cages (22±1° C., 55±5% relative humidity, 50-70 changes of fresh air/hour and 12 hours day and night cycle) with sawdust bedding. Standard laboratory mouse chow (SNIFF, Soest, Germany) and drinking water is given ad libidum. The animals are used for the study after an adaptation period of 10-14 days and grouped (6 per group) in type II Macrolon cages one day before the experiment.
(§2) Groups of six DO11.10 mice are i.p. injected with 10 μg of ovalbumin (OVA, Sigma, St. Louis, USA) absorbed to 2 mg of Al(OH)3 (Alu Gel S; 2% Al(OH)3, Serva, Heidelberg, FRG) and diluted with saline to a volume of 0.2 ml or various amounts (1, 3, 10, 30, or 90 μg per mouse) of alum-precipitated OVA323-339 peptide (98% purity, piChem R&D, Graz Austria) in 0.2 ml on days 0 and 14. Before and at different time points on days 0 and 14 after the OVA or OVA323-339 peptide administration about 200 μl of blood are collected by puncture of the retro-orbital plexus under ether anesthesia.
The sera are collected and stored frozen at −20° C. until analyzed. […]
(§3) Murine IL-2, IFN-γ and IL-4 are analyzed by immunoassays (Quantikine R&D Systems, Minneapolis, Minn., USA). Results are expressed as pg per ml serum expressed as mean±SEM pg of the cytokine indicated per ml serum. Test and control groups are evaluated by Dunn test by Kruskall-Wallis One Way Anova using the SigmaStat® program.
Serum IL-4 levels after primary and secondary OVA323-339 peptide antigen stimulation are shown in TABLE 3: Groups of 6 mice receive various doses (1, 3, 10, 30 and 90 μg/mouse) of alum-precipitated OVA323-339 peptide i.p. on day 0 and 14. Animals of the control group are injected with alum. Blood is collected before and at 2, 4, and 6 hours after the first (A) and after the second peptide injection (B). IL-4 is determined in the sera by an ELISA. Results are expressed as mean pg per ml serum±SEM. […]

IL-2 = experiment: Serum IL-2 in OVA323-339 stimulated DO11.10 mice (ELISA)
Method: as §1, §2
The sera are collected and stored frozen at −20° C. until analyzed.
The Neoral solution is diluted further with tap water. Doses of 20, 40, and 80 mg/kg b.w. are administered in a volume of 0.2 ml. Animals in the control group receive the solvent alone.
as §3
Animals of the control group are injected with alum. Blood is collected before and at 2 hours after the peptide injection. IL-2 is determined in the sera by an ELISA. Results are expressed as mean pg per ml serum±SEM.
Blood is collected 2 hours later and IFN-γ, IL-4 and IL-2 levels are determined in the sera by ELISAs. Results are expressed as mean pg per ml serum±SEM.

TNF-α = experiment: Serum TNF-α in DO11.10 mice primed with OVA-peptide and challenged with LPS
Method: Animals are provided as described in Example 2a).
b) Administration of OVA323-339 (=OVA-peptide) and LPS Groups of six DO11.10 mice receive i.p. 30 μg of OVA323-339 peptide (98% purity, pi Chem R&D, Graz Austria) in 0.2 ml 0.9% saline per mouse. Control mice are injected i.p. with the same amount of saline.
18 hours later the mice are challenged i.p. with 100, 300 or 500 μg LPS (E. coli 0111: B4 Sigma Vienna, Austria). At 2, 4 and 6 hours after the LPS administration about 200 μl of blood are collected by puncture of the retro-orbital plexus under ether anesthesia. The sera are collected and stored frozen at −20° until analyzed.
Murine IL-1α, IL-1β and TNF-α serum levels are determined by ELISAs (IL-1α and TNF-α, Bender MedSystems, Vienna Austria; IL-1β, Quantikine R&D Systems, Minneapolis, Minn.). Results are expressed as pg per ml serum. Differences in the serum cytokines concentrations between the different experimental groups are examined for statistical significance by the Mann-Whitney U test, two tailed. Results are expressed as the mean±SEM. p<0.05 is regarded as significant.
The effects of various doses of LPS (100, 300, or 500 μg/mouse) on the production of TNF-α in the serum of non-sensitized DO11.10 mice or mice sensitized by i.p. injection of OVA-peptide (30 μg/mouse, 18 hours prior to LPS challenge) are given in TABLE 8. The TNF-α serum levels are expressed as mean pg per ml serum±SEM.

In the case of “OVA323-339: peptide derived from chicken ovalbumin containing amino acids from position 323 to 339 (KISQAVHAAHAEINEAG; UniProt P01012 323-339, looked up, fragment)”, the “IL-4 level in pg/ml serum on day 0 after 0 hours” value (shortened to “IL-4 level … after 0 hours”) (IL-4; 1 μg OVA323-339 i.p.) is reported as 25.770 ± 2.618 pg/mL, the “IL-4 level in pg/ml serum on day 0 after 2 hours” value (“IL-4 level … after 2 hours” for short) (IL-4; 1 μg OVA323-339 i.p.) is reported as 36.426 ± 5.871 pg/mL and the “IL-4 level in pg/ml serum on day 0 after 4 hours” value (“IL-4 level … after 4 hours” for short) (IL-4; 1 μg OVA323-339 i.p.) is reported as 4.094 ± 1.072 pg/mL. For the same substance, the “IL-4 level in pg/ml serum on day 0 after 6 hours” value (“IL-4 level … after 6 hours” for short) (IL-4; 1 μg OVA323-339 i.p.) was 13.354 ± 4.010 pg/mL, the “change of IL-4 levels” value (IL-4; 1 μg of peptide, first injection) was “remain unchanged” and the “IL-4 level … after 0 hours” value (IL-4; 3 μg OVA323-339 i.p.) was 17.905 ± 3.616 pg/mL. For the same substance, the “IL-4 level … after 2 hours” value (IL-4; 3 μg OVA323-339 i.p.) was 37.706 ± 4.028 pg/mL, the “IL-4 level … after 4 hours” value (IL-4; 3 μg OVA323-339 i.p.) was 7.903 ± 0.957 pg/mL and the “IL-4 level … after 6 hours” value (IL-4; 3 μg OVA323-339 i.p.) was 11.051 ± 2.549 pg/mL. For the same substance, the “increase of serum IL-4 levels compared to alum control” value (IL-4; 3 μg of peptide, after 2 hours) was “only slightly”, the “IL-4 level … after 0 hours” value (IL-4; 10 μg OVA323-339 i.p.) was 16.296 ± 3.397 pg/mL and the “IL-4 level … after 2 hours” value (IL-4; 10 μg OVA323-339 i.p.) was 41.870 ± 9.751 pg/mL. For the same substance, the “IL-4 level … after 4 hours” value (IL-4; 10 μg OVA323-339 i.p.) was 18.804 ± 1.757 pg/mL, the “IL-4 level … after 6 hours” value (IL-4; 10 μg OVA323-339 i.p.) was 5.735 ± 2.226 pg/mL and the “increase of serum IL-4 levels compared to alum control” value (IL-4; 10 μg of peptide, after 2 hours) was “only slightly”. For the same substance, the “IL-4 level … after 0 hours” value (IL-4; 30 μg OVA323-339 i.p.) was 16.524 ± 2.209 pg/mL, the “IL-4 level … after 2 hours” value (IL-4; 30 μg OVA323-339 i.p.) was 93.594 ± 29.015 pg/mL and the “IL-4 level … after 4 hours” value (IL-4; 30 μg OVA323-339 i.p.) was 41.725 ± 10.226 pg/mL. For the same substance, the “IL-4 level … after 6 hours” value (IL-4; 30 μg OVA323-339 i.p.) was 17.173 ± 2.069 pg/mL, the “rise of serum IL-4 levels” value (IL-4; 30 μg of peptide, at 2 hours) was 3 fold and the “IL-4 level … after 2 hours” value (IL-4; 90 μg OVA323-339 i.p.) was 273.017 ± 95.997 pg/mL. The “IL-4 level … after 4 hours” value (IL-4; 90 μg OVA323-339 i.p.) was 146.940 ± 21.784 pg/mL, the “IL-4 level … after 6 hours” value (IL-4; 90 μg OVA323-339 i.p.) was 127.616 ± 7.397 pg/mL and the “rise of serum IL-4 levels” value (IL-4; 90 μg peptide, after 4 and 6 hours) was 7-8 fold. The “increase of serum IL-4 levels” value (IL-4; 90 μg peptide, after 2 hours) was 14 fold, the “rise in the IL-4 levels after the second antigen stimulation” value (IL-4; second antigen stimulation (day 14)) was “up to several 100 fold” and the “change of IL-4 levels compared to the control” value (IL-4; second injection of 1 μg of peptide 2 weeks later) was “does not change”. The “IL-2 levels in pg/ml serum on day 0 after 2 hours” value (“IL-2 levels in pg/ml serum” for short) (IL-2; 3 μg OVA323-339 i.p.) was 327.513 ± 76.331 pg/mL, the “IL-2 levels in pg/ml serum” value (IL-2; 10 μg OVA323-339 i.p.) was 2866.966 ± 361.613 pg/mL and the “IL-2 levels in pg/ml serum” value (IL-2; 30 μg OVA323-339 i.p.) was 2926.303 ± 381.536 pg/mL. The “IL-2 levels in pg/ml serum” value (IL-2; 90 μg OVA323-339 i.p.) was 4841.034 ± 108.352 pg/mL, the “TNF-α in OVA-primed versus unprimed mice” value (TNF-α; 100 μg LPS, 2 hours) was 9.7 fold and the “change in TNF-α levels, OVA-primed versus unprimed” value (TNF-α; 100 μg LPS, 4 hours) was “no significant changes”. The “TNF-α in OVA-peptide primed versus unprimed mice” value (TNF-α; 300 μg LPS, 2 hours) was 7.8 fold, the “difference in TNF-α levels, OVA-peptide primed versus unprimed” value (TNF-α; 300 μg LPS, 4 hours) was “no difference” and the “TNF-α in OVA-peptide primed versus unprimed mice” value (TNF-α; 500 μg LPS, 2 hours) was 5.2 fold.
